# Results published in patent US6447818B1, “Compositions containing compounds with adrenergic activity and vegetable extracts of Crataegus and gingko biloba for the treatment of overweight and obesity” (Ambros Pharma S.R.L., priority 1999, dated 2002).
# Tested on: systemic arterial pressure and cardiac frequency in the rat
# Experiment: Hypertensive and tachycardic effects of adrenergic substances and extracts in the anesthetized rat
# Format: in vivo
# Settings: i.v., anesthetized male Wistar rats, dose-dependent
# Excerpt: 1. Effects of Crataegus Extract and Oterin® on Hypertension Induced with Ephedrine or with Extract of Ephedra Sinica Standardized in Ephedrine or Induced with Synephrine, or with Extract of Citrus Aurantium Standardized in Synephrine in the Rat
# Male Wistar rats (Charles River, Calco-CO) weighing 180-200 grams were used. The animals were anesthetized with ethylurethane (1.2-1.5 g/kg i.p.) and prepared for the recording of systemic arterial pressure (via the carotid artery) and cardiac frequency. Individual examples of the registration (copies of the original tracings) and the summary of the mean data (±SEM) are given in FIGS. 1-4.
# The dosages of synephrine leading to hypertensive activity were slightly higher (0.5-2 mg/kg i.v.) (FIGS. 2A, 3C). […] Tachycardia was induced in the same dose-dependent manner (FIGS. 3A, 3B).
compound,measurement,value
CNCC(O)c1ccc(O)cc1 (stereo not shown) [synephrine],dosages inducing hypertensive effects on the arterial pressure,0.5 to 2 mg/kg
